According to patent publication US20230033285A1, “Protease Inhibitors for Treatment of Coronavirus Infections” (The Scripps Research Institute, priority 2021, published 2023):

Each compound was assayed on SARS-CoV-2 (assay: microbe, parasite or virus in culture). Conditions: Severe acute respiratory syndrome coronavirus 2, HeLa-ACE2, 24 h, read-out: EC50, μM (Hela).
Type: cell-based

| SMILES | EC50 [µM] |
| --- | --- |
| CC1(C)[C@@H]2[C@@H](C(=O)N[C@H](C#N)C[C@@H]3CCCNC3=O)N(C(=O)[C@@H](NC(=O)C(F)(F)F)C3CCOCC3)C[C@@H]21 [Compound 68, (1R,2S,5S)-N-((S)-1-cyano-2-((S)-2-oxopiperidin-3-yl)ethyl)-6,6-dimethyl-3-((S)-2-(tetrahydro-2H-pyran-4-yl)-2-(2,2,2-trifluoroacetamido)acetyl)-3-azabicyclo[3.1.0]hexane-2-carboxamide] | > 1 |

Same assay, conditions: Severe acute respiratory syndrome coronavirus 2; HeLa-ACE2 cells infected with SARS-CoV-2, 24 h, immunofluorescence of infected cells; read-out: EC50, μM (Hela)

| SMILES | EC50 [µM] |
| --- | --- |
| CC(C)(C)C[C@H](NC(=O)C(=O)Nc1ccccc1F)C(=O)N[C@@H](C[C@@H]1CCCNC1=O)C(=O)CO [Compound 87, N^1-(2-fluorophenyl)-N^2-((S)-1-(((S)-4-hydroxy-3-oxo-1-((S)-2-oxopiperidin-3-yl)butan-2-yl)amino)-4,4-dimethyl-1-oxopentan-2-yl)oxalamide] | < 0.05 |
| Cc1ccccc1NC(=O)C(=O)N[C@@H](CC1CC1)C(=O)N[C@@H](C[C@@H]1CCCNC1=O)C(=O)CO [Compound 88, N^1-((S)-3-cyclopropyl-1-(((S)-4-hydroxy-3-oxo-1-((S)-2-oxopiperidin-3-yl)butan-2-yl)amino)-1-oxopropan-2-yl)-N^2-(o-tolyl)oxalamide] | < 0.05 |
| CC(C)(C)C[C@H](NC(=O)C(=O)NC(C)(C)C)C(=O)N[C@@H](C[C@@H]1CCCNC1=O)C(=O)CO [Compound 89, N^1-(tert-butyl)-N^2-((S)-1-(((S)-4-hydroxy-3-oxo-1-((S)-2-oxopiperidin-3-yl)butan-2-yl)amino)-4,4-dimethyl-1-oxopentan-2-yl)oxalamide] | 0.05 to 0.2 |
| O=C(Nc1ccccc1F)C(=O)N[C@@H](CC1CC1)C(=O)N[C@@H](C[C@@H]1CCCNC1=O)C(=O)CO [Compound 90, N^1-((S)-3-cyclopropyl-1-(((S)-4-hydroxy-3-oxo-1-((S)-2-oxopiperidin-3-yl)butan-2-yl)amino)-1-oxopropan-2-yl)-N^2-(2-fluorophenyl)oxalamide] | < 0.05 |
| Cc1ccccc1NC(=O)C(=O)N1C[C@@H]2CCC[C@@H]2[C@H]1C(=O)N[C@@H](C[C@@H]1CCCNC1=O)C(=O)CO [Compound 91, (1S,3aR,6aS)-N-((S)-4-hydroxy-3-oxo-1-((S)-2-oxopiperidin-3-yl)butan-2-yl)-2-(2-oxo-2-(o-tolylamino)acetyl)octahydrocyclopenta [c]pyrrole-1-carboxamide] | 0.05 to 0.2 |
| Cc1ccccc1NC(=O)C(=O)N1C[C@@H]2CCC[C@@H]2[C@H]1C(=O)N[C@H](C[C@@H]1CCCNC1=O)C(=O)CO [Compound 92, (1S,3aR,6aS)-N-((R)-4-hydroxy-3-oxo-1-((S)-2-oxopiperidin-3-yl)butan-2-yl)-2-(2-oxo-2-(o-tolylamino)acetyl)octahydrocyclopenta [c]pyrrole-1-carboxamide] | > 1 |
| O=C(Nc1ccccc1F)C(=O)N1CC2(CC2)C[C@H]1C(=O)N[C@@H](C[C@@H]1CCNC1=O)C(=O)CO [Compound 93, (S)-5-(2-((2-fluorophenyl)amino)-2-oxoacetyl)-N-((S)-4-hydroxy-3-oxo-1-((S)-2-oxopyrrolidin-3-yl)butan-2-yl)-5-azaspiro[2.4]heptane-6-carboxamide] | 0.2 to 0.5 |
| CC(C)(C)C[C@H](NC(=O)C(=O)NC12CC(F)(C1)C2)C(=O)N[C@@H](C[C@@H]1CCCNC1=O)C(=O)CO [Compound 94, N^1-(3-fluorobicyclo[1.1.1]pentan-1-yl)-N^2-((S)-1-(((S)-4-hydroxy-3-oxo-1-((S)-2-oxopiperidin-3-yl)butan-2-yl)amino)-4,4-dimethyl-1-oxopentan-2-yl)oxalamide] | 0.05 to 0.2 |
| CC(C)(C)C[C@H](NC(=O)C(=O)Nc1cccc(OC(F)(F)F)c1)C(=O)N[C@@H](CC1CCCNC1=O)C(=O)CO (some centres unmarked) [Compound 95] | < 0.05 |
| CC(C)(C)C[C@H](NC(=O)C(=O)Nc1ccccc1C(F)(F)F)C(=O)N[C@@H](CC1CCCNC1=O)C(=O)CO (some centres unmarked) [Compound 96] | < 0.05 |
| CC1(C[C@H](NC(=O)C(=O)NC23CC(F)(C2)C3)C(=O)N[C@@H](C[C@@H]2CCNC2=O)C(=O)CO)CCC1 [Compound 97, N^1-(3-fluorobicyclo[1.1.1]pentan-1-yl)-N^2-((S)-1-(((S)-4-hydroxy-3-oxo-1-((S)-2-oxopyrrolidin-3-yl)butan-2-yl)amino)-3-(1-methylcyclobutyl)-1-oxopropan-2-yl)oxalamide] | 0.05 to 0.2 |
| CC(C)(C)C[C@H](NC(=O)C(=O)Nc1ccccc1OC(F)(F)F)C(=O)N[C@@H](CC1CCCNC1=O)C(=O)CO (some centres unmarked) [Compound 98] | < 0.05 |
| CC(C)(C)C[C@H](NC(=O)C(=O)Nc1cccc(C(F)(F)F)c1)C(=O)N[C@@H](CC1CCCNC1=O)C(=O)CO (some centres unmarked) [Compound 99] | < 0.05 |
| CC(C)(C)C[C@H](NC(=O)C(=O)Nc1ccccc1C(C)(C)C)C(=O)N[C@@H](C[C@@H]1CCCNC1=O)C(=O)CO [Compound 100, N^1-(2-(tert-butyl)phenyl)-N^2-((S)-1-(((S)-4-hydroxy-3-oxo-1-((S)-2-oxopiperidin-3-yl)butan-2-yl)amino)-4,4-dimethyl-1-oxopentan-2-yl)oxalamide] | < 0.05 |
| CC(C)(C)C[C@H](NC(=O)C(=O)Nc1ccc(OC(F)(F)F)cc1)C(=O)N[C@@H](C[C@@H]1CCCNC1=O)C(=O)CO [Compound 101, N^1-((S)-1-(((S)-4-hydroxy-3-oxo-1-((S)-2-oxopiperidin-3-yl)butan-2-yl)amino)-4,4-dimethyl-1-oxopentan-2-yl)-N^2-(4-(trifluoromethoxy)phenyl)oxalamide] | 0.05 to 0.2 |
| CC(C)(C)C[C@H](NC(=O)C(=O)Nc1cccc(Cl)c1)C(=O)N[C@@H](CC1CCCNC1=O)C(=O)CO (stereo partly drawn) [Compound 102, N^1-(3-chlorophenyl)-N^2-((S)-1-(((S)-4-hydroxy-3-oxo-1-((S)-2-oxopiperidin-3-yl)butan-2-yl)amino)-4,4-dimethyl-l-oxopentan-2-yl)oxalamide] | < 0.05 |
| CC(C)CC(=O)OCC(=O)[C@H](C[C@@H]1CCNC1=O)NC(=O)[C@H](CC(C)C)NC(=O)C(=O)Nc1ccccc1F [Compound 103, (S)-3-((S)-2-(2-((2-fluorophenyl)amino)-2-oxoacetamido)-4-methylpentanamido)-2-oxo-4-((S)-2-oxopyrrolidin-3-yl)butyl 3-methylbutanoate] | 0.05 to 0.2 |
| CC(C)CC(=O)OCC(=O)[C@H](C[C@@H]1CCCNC1=O)NC(=O)[C@H](CC(C)C)NC(=O)C(=O)Nc1ccccc1F [Compound 104, (S)-3-((S)-2-(2-((2-fluorophenyl)amino)-2-oxoacetamido)-4-methylpentanamido)-2-oxo-4-((S)-2-oxopiperidin-3-yl)butyl 3-methylbutanoate] | 0.05 to 0.2 |
| CC(=O)OCC(=O)[C@H](C[C@@H]1CCCNC1=O)NC(=O)[C@H](CC(C)C)NC(=O)C(=O)Nc1ccccc1F [Compound 105, (S)-3-((S)-2-(2-((2-fluorophenyl)amino)-2-oxoacetamido)-4-methylpentanamido)-2-oxo-4-((S)-2-oxopiperidin-3-yl)butyl acetate] | 0.05 to 0.2 |
| CC(=O)OCC(=O)[C@H](C[C@@H]1CCNC1=O)NC(=O)[C@H](CC(C)C)NC(=O)C(=O)Nc1ccccc1F [Compound 106, (S)-3-((S)-2-(2-((2-fluorophenyl)amino)-2-oxoacetamido)-4-methylpentanamido)-2-oxo-4-((S)-2-oxopyrrolidin-3-yl)butyl acetate] | 0.05 to 0.2 |
| CC(C)C[C@H](NC(=O)C(=O)Nc1ccccc1F)C(=O)N[C@@H](C[C@@H]1CCCNC1=O)C(=O)COC(=O)OC(C)C [Compound 107, (S)-3-((S)-2-(2-((2-fluorophenyl)amino)-2-oxoacetamido)-4-methylpentanamido)-2-oxo-4-((S)-2-oxopiperidin-3-yl)butyl isopropyl carbonate] | < 0.05 |
| CC(C)C[C@H](NC(=O)C(=O)Nc1ccccc1F)C(=O)N[C@@H](C[C@@H]1CCNC1=O)C(=O)COC(=O)OC(C)C [Compound 108, (S)-3-((S)-2-(2-((2-fluorophenyl)amino)-2-oxoacetamido)-4-methylpentanamido)-2-oxo-4-((S)-2-oxopyrrolidin-3-yl)butyl isopropyl carbonate] | 0.05 to 0.2 |
| O=C(N[C@@H](CC1CC1)C(=O)N[C@@H](C[C@@H]1CCCNC1=O)C(=O)CO)C(=O)NC12CCC(F)(CC1)CC2 [Compound 110, N^1-((S)-3-cyclopropyl-1-(((S)-4-hydroxy-3-oxo-1-((S)-2-oxopiperidin-3-yl)butan-2-yl)amino)-1-oxopropan-2-yl)-N^2-(4-fluorobicyclo[2.2.2]octan-1-yl)oxalamide] | > 1 |
| CC1(C[C@H](NC(=O)C(=O)NC23CC(F)(C2)C3)C(=O)N[C@@H](C[C@@H]2CCCNC2=O)C(=O)CO)CCC1 [Compound 111, N^1-(3-fluorobicyclo[1.1.1]pentan-1-yl)-N^2-((S)-1-(((S)-4-hydroxy-3-oxo-1-((S)-2-oxopiperidin-3-yl)butan-2-yl)amino)-3-(1-methylcyclobutyl)-1-oxopropan-2-yl)oxalamide] | 0.2 to 0.5 |
| CC(C)(C)C[C@H](NC(=O)C(=O)Nc1cccc(C(F)(F)F)n1)C(=O)N[C@@H](C[C@@H]1CCCNC1=O)C(=O)CO [Compound 112] | 0.5 to 1 |
| CC1(C[C@H](NC(=O)C(=O)NC(C)(C)C)C(=O)N[C@@H](C[C@@H]2CCCNC2=O)C(=O)CO)CCC1 [Compound 113, N^1-(tert-butyl)-N^2-((S)-1-(((S)-4-hydroxy-3-oxo-1-((S)-2-oxopiperidin-3-yl)butan-2-yl)amino)-3-(1-methylcyclobutyl)-1-oxopropan-2-yl)oxalamide] | 0.05 to 0.2 |
| CC(C)C[C@H](NC(=O)C(=O)NC(C)(C)C)C(=O)N[C@@H](C[C@@H]1CCCNC1=O)C(=O)CO [Compound 115, N^1-(tert-butyl)-N^2-((S)-1-(((S)-4-hydroxy-3-oxo-1-((S)-2-oxopiperidin-3-yl)butan-2-yl)amino)-4-methyl-1-oxopentan-2-yl)oxalamide] | > 1 |
| CC(C)CCC(=O)N1CC2(CC2)C[C@H]1C(=O)N[C@H](C#N)C[C@@H]1CCNC1=O [Compound 117, (S)-N-((S)-1-cyano-2-((S)-2-oxopyrrolidin-3-yl)ethyl)-5-(4-methylpentanoyl)-5-azaspiro[2.4]heptane-6-carboxamide] | > 1 |
